The source of these data is patent publication US12030883B2, “Hetero-tricyclic compounds as inhibitors of KRAS” (Incyte Corporation, priority 2021, dated 2024).

In one assay the target is KRAS G12D (Homo sapiens, UniProt P01116, G12D). Description: GDP-GTP exchange assay, KRAS G12D (bodipy-GDP/GppNHp, SOS1). The following applies: bodipy-loaded KRAS G12D 2.5 nM, 4 hours pre-incubation with inhibitor, SOS1 150 nM, GppNHp 500 uM; read-out: G12D_exchange (KRAS_G12D exchange assay IC50). Format: biochemical. As to the method:
(§1) The inhibitor potency of the exemplified compounds was determined in a fluorescence based guanine nucleotide exchange assay, which measures the exchange of bodipy-GDP (fluorescently labeled GDP) for GppNHp (Non-hydrolyzable GTP analog) to generate the active state of KRAS in the presence of SOS1 (guanine nucleotide exchange factor). Inhibitors were serially diluted in DMSO and a volume of 0.1 μL was transferred to the wells of a black low volume 384-well plate. Five μL/well volume of bodipy-loaded KRAS G12D or G12V diluted to a final concentration of 2.5 nM in assay buffer (25 mM Hepes pH 7.5, 50 mM NaCl, 10 mM MgCl2 and 0.01% Brij-35) was added to the plate and pre-incubated with inhibitor for 4 hours (G12D) or 3 hours (G12V) at ambient temperature. A cyclic peptide described to selectively bind G12D mutant (Sakamoto et al., BBRC 484.3 (2017), 605-611) or internal compounds with confirmed binding were used as positive controls in the assay plates. The exchange was initiated by the addition of a 5 μL/well volume containing 1 mM GppNHp and 300 nM SOS1 in assay buffer. The 10 μL/well reaction concentration of the bodipy-loaded KRAS G12D or G12V, GppNHp, and SOS1 were 2.5 nM, 500 uM, and 150 nM, respectively.
(§2) Either GraphPad prism or XLfit was used to analyze the data. The IC50 values were derived by fitting the data to a four parameter logistic equation producing a sigmoidal dose-response curve with a variable Hill coefficient. Prism equation: Y=Bottom+(Top−Bottom)/(1+10^((LogIC50-X)*Hill slope)); XLfit equation: Y=(A+((B−A)/(1+((X/C)^D)))) where X is the logarithm of inhibitor concentration and Y is the response.

In the next assay the target is KRAS G12V (Homo sapiens, UniProt P01116, G12V). Description: GDP-GTP exchange assay, KRAS G12V (bodipy-GDP/GppNHp, SOS1). The class given is biochemical. The following applies: bodipy-loaded KRAS G12V 2.5 nM, 3 hours pre-incubation with inhibitor, SOS1 150 nM, GppNHp 500 uM; read-out: G12V_exchange (KRAS_G12V exchange assay IC50). The protocol: as §1, §2

SMILES strings stand for the structures. Where only a bound is given, the exact number is not on record here.

Chain of KRAS G12V (P01116 1-188 isoform P01116-2 G12V): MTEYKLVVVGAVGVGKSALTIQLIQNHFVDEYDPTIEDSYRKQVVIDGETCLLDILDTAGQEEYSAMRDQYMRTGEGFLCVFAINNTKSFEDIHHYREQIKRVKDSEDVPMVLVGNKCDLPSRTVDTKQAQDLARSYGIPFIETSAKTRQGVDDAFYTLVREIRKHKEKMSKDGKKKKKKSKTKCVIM
Chain of KRAS G12D (P01116 1-188 isoform P01116-2 G12D): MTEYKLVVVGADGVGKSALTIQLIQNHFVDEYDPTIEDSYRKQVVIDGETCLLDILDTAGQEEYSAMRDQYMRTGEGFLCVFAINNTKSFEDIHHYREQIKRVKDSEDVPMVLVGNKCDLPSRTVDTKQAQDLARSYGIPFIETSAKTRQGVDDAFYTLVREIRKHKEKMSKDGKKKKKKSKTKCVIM

Regarding `CC1Cc2c(OC[C@@H]3CCCN3C)nc3c(F)c(-c4cc(O)cc5ccccc45)c(CCC#N)cc3c2N(C2C3CNC2C3)C1` (single isomer, unassigned) [Example 14c], the IC50 on KRAS G12D was in the range of 1000 to 5000 nM; on KRAS G12V, 5000 to 10000 nM.
For the molecule `C[C@@H](CN(C)C)Oc1nc2c(F)c(-c3cc(O)cc4ccccc34)c(CCC#N)cc2c2c1CCCN2C1C2CNC1C2` (single isomer, unassigned) [Example 16a], the IC50 on KRAS G12D and on KRAS G12V was 5000 to 10000 nM each time.
`N#CCCc1cc2c3c(cnc2c(F)c1-c1cc(O)cc2ccccc12)N(CC(N)=O)C(=O)CN3C1C2CNC1C2` (single isomer, unassigned) [Example 19a, 2-(1-((endo)-2-Azabicyclo[2.1.1]hexan-5-yl)-9-(2-cyanoethyl)-7-fluoro-8-(3-hydroxynaphthalen-1-yl)-3-oxo-2,3-dihydropyrazino[2,3-c]quinolin-4(1H)-yl)acetamide]: the IC50 on KRAS G12D was no more than 100 nM; at KRAS G12V, 100 to 1000 nM.
Taken in the same sequence, the figures for `C[C@@H](CN(C)C)Oc1nc2c(F)c(-c3cc(O)cc4ccccc34)c(CCC#N)cc2c2c1NC(=O)CN2C1C2CNC1C2` (single isomer, unassigned) [Example 11d] were 100 to 1000 nM and 100 to 1000 nM.
On the same counts, the results for `N#CCCc1cc2c3c(c(-c4ccc5cccnc5c4)nc2c(F)c1-c1cc(O)cc2ccccc12)NC(=O)CN3C1C2CNC1C2` (single isomer, unassigned) [Example 6b, 3-(1-((endo)-2-Azabicyclo[2.1.1]hexan-5-yl)-7-fluoro-8-(3-hydroxynaphthalen-1-yl)-3-oxo-5-(quinolin-7-yl)-1,2,3,4-tetrahydropyrazino[2,3-c]quinolin-9-yl)propanenitrile] are 1000 to 5000 nM and 1000 to 5000 nM.
Taken in the same sequence, the figures for `N#CCCc1cc2c3c(c(OC[C@@]45CCCN4C[C@H](F)C5)nc2c(F)c1-c1cc(O)cc2ccccc12)NC(=O)CN3C1C2CNC1C2` (single isomer, unassigned) [Example 10c] were 100 to 1000 nM and 100 to 1000 nM.
In the case of `C[C@H](Oc1nc2c(F)c(-c3c[nH]c4ccccc34)c(CCC#N)cc2c2c1NC(=O)CN2C1C2CNC1C2)[C@@H]1CCCN1C` (single isomer, unassigned) [Example 1b], the IC50 on KRAS G12D and on KRAS G12V was 100 to 1000 nM each time.
As to `C[C@H](Oc1nc2c(F)c(-c3cccc(Cl)c3Cl)c(CCC#N)cc2c2c1NC(=O)CN2C1C2CNC1C2)[C@@H]1CCCN1C` (single isomer, unassigned) [Example 2a], the IC50 on KRAS G12D and on KRAS G12V was 100 to 1000 nM in each case.
Consider `Cc1cc2c(nc(O[C@@H](C)[C@@H]3CCCN3C)c3c(=O)c(Nc4cnn(C)c4)cn([C@H]4[C@H]5CN[C@@H]4C5)c32)c(F)c1-c1cccc2c1C(C#N)CCC2` (single isomer, unassigned) [Example 26a], for which the IC50 at KRAS G12D and on KRAS G12V was no more than 100 nM throughout.
Regarding `CN(C)C1CN(c2nc3c(F)c(-c4cc(O)cc5ccccc45)c(CCC#N)cc3c3c2NC(=O)CN3C2C3CNC2C3)C1` (single isomer, unassigned) [Example 13b, 3-(1-((endo)-2-Azabicyclo[2.1.1]hexan-5-yl)-5-(3-(dimethylamino)azetidin-1-yl)-7-fluoro-8-(3-hydroxynaphthalen-1-yl)-3-oxo-1,2,3,4-tetrahydropyrazino[2,3-c]quinolin-9-yl)propanenitrile], the IC50 on KRAS G12D and on KRAS G12V was 100 to 1000 nM in each case.
For the molecule `CN1CCC[C@H]1COc1nc2c(F)c(-c3cc(O)cc4ccccc34)c(CCC#N)cc2c2c1CCCN2C1C2CNC1C2` (single isomer, unassigned) [Example 12a], the IC50 was 1000 to 5000 nM on KRAS G12D and 5000 to 10000 nM at KRAS G12V.
On the same counts, the results for `C[C@@H](CN(C)C)Oc1nc2c(F)c(-c3cc(O)cc4ccccc34)c(CCC#N)cc2c2c1NC(=O)CN2C1C2CNC1C2` (single isomer, unassigned) [Example 11a] are 5000 to 10000 nM and 5000 to 10000 nM.
Taken in the same sequence, the figures for `C[C@H](Oc1nc2c(F)c(-c3cc(O)cc4ccc(F)cc34)c(CCC#N)cc2c2c1NC(=O)CN2C1C2CNC1C2)[C@@H]1CCCN1C` (single isomer, unassigned) [Example 4b] were 100 to 1000 nM and 100 to 1000 nM.
Taken in the same sequence, the figures for `C[C@H](Oc1nc2c(F)c(-c3cccc4ccc(F)cc34)c(CCC#N)cc2c2c1NC(=O)CN2C1C2CNC1C2)[C@@H]1CCCN1C` (single isomer, unassigned) [Example 3b] were 100 to 1000 nM and 100 to 1000 nM.
Regarding `CNC(=O)c1ccc(-c2nc3c(F)c(-c4cc(O)cc5ccccc45)c(CCC#N)cc3c3c2NC(=O)CN3C2C3CNC2C3)cn1` (single isomer, unassigned) [Example 5b, 5-(1-((endo)-2-Azabicyclo[2.1.1]hexan-5-yl)-9-(2-cyanoethyl)-7-fluoro-8-(3-hydroxynaphthalen-1-yl)-3-oxo-1,2,3,4-tetrahydropyrazino[2,3-c]quinolin-5-yl)-N-methylpicolinamide], the IC50 at KRAS G12D and on KRAS G12V was 1000 to 5000 nM each time.
`C[C@H](Oc1nc2c(F)c(-c3cccc(Cl)c3Cl)c(CCC#N)cc2c2c1NC(=O)CN2C1C2CNC1C2)[C@@H]1CCCN1C` (single isomer, unassigned) [Example 2c]: the IC50 at KRAS G12D and on KRAS G12V was 100 to 1000 nM throughout.
As to `C[C@H](Oc1nc2c(F)c(-c3cc(O)cc4ccccc34)c(CCC#N)cc2c2c1CCCN2C1C2CNC1C2)[C@@H]1CCCN1C` (single isomer, unassigned) [Example 15a], the IC50 at KRAS G12D and at KRAS G12V was 1000 to 5000 nM throughout.
For the molecule `N#CCCc1cc2c3c(cnc2c(F)c1-c1cc(O)cc2ccccc12)N(CCC1CCNCC1)C(=O)CN3C1C2CNC1C2` (single isomer, unassigned) [Example 18a, 3-(1-((endo)-2-Azabicyclo[2.1.1]hexan-5-yl)-7-fluoro-8-(3-hydroxynaphthalen-1-yl)-3-oxo-4-(2-(piperidin-4-yl)ethyl)-1,2,3,4-tetrahydropyrazino[2,3-c]quinolin-9-yl)propanenitrile], the IC50 on KRAS G12D is no more than 100 nM; on KRAS G12V, 100 to 1000 nM.
Taken in the same sequence, the figures for `Cn1cnc(-c2nc3c(F)c(-c4cc(O)cc5ccccc45)c(CCC#N)cc3c3c2NC(=O)CN3C2C3CNC2C3)c1` (single isomer, unassigned) [Example 7b, 3-(1-((endo)-2-Azabicyclo[2.1.1]hexan-5-yl)-7-fluoro-8-(3-hydroxynaphthalen-1-yl)-5-(1-methyl-1H-imidazol-4-yl)-3-oxo-1,2,3,4-tetrahydropyrazino[2,3-c]quinolin-9-yl)propanenitrile] were 100 to 1000 nM and 1000 to 5000 nM.
On the same counts, the results for `C[C@H](Oc1nc2c(F)c(-c3cccc(Cl)c3Cl)c(CCC#N)cc2c2c1c(=O)c(N1CCCC1=O)cn2[C@H]1[C@H]2CN[C@@H]1C2)[C@@H]1CCCN1C` (single isomer, unassigned) [Example 25] are no more than 100 nM and no more than 100 nM.
For `N#CCCc1cc2c3c(cnc2c(F)c1-c1cc(O)cc2ccccc12)N(c1ccccc1)C(=O)CN3[C@@H]1[C@@H]2CN[C@H]1C2` (relative stereo) [Example 17, 3-(1-((endo)-2-Azabicyclo[2.1.1]hexan-5-yl)-7-fluoro-8-(3-hydroxynaphthalen-1-yl)-3-oxo-4-phenyl-1,2,3,4-tetrahydropyrazino[2,3-c]quinolin-9-yl)propanenitrile], the IC50 on KRAS G12D and at KRAS G12V was 100 to 1000 nM in each case.
For the molecule `CC1Cc2c(OC[C@@H]3CCCN3C)nc3c(F)c(-c4cc(O)cc5ccccc45)c(CCC#N)cc3c2N(C2C3CNC2C3)C1` (single isomer, unassigned) [Example 14d], the IC50 on KRAS G12D and on KRAS G12V was 1000 to 5000 nM each time.
For the molecule `N#CCCc1cc2c3c(c(Cc4ccccc4)nc2c(F)c1-c1cc(O)cc2ccccc12)NC(=O)CN3C1C2CNC1C2` (single isomer, unassigned) [Example 8b, 3-(5-Benzyl-1-((endo)-2-azabicyclo[2.1.1]hexan-5-yl)-7-fluoro-8-(3-hydroxynaphthalen-1-yl)-3-oxo-1,2,3,4-tetrahydropyrazino[2,3-c]quinolin-9-yl)propanenitrile], the IC50 on KRAS G12D and on KRAS G12V was 5000 to 10000 nM in each case.
Regarding `N#CCCc1cc2c3c(c(OC[C@@]45CCCN4C[C@H](F)C5)nc2c(F)c1-c1cc(O)cc2ccccc12)NC(=O)CN3C1C2CNC1C2` (single isomer, unassigned) [Example 10d], the IC50 at KRAS G12D lay within 1000 to 5000 nM; on KRAS G12V, 5000 to 10000 nM.
Taken in the same sequence, the figures for `C[C@@H](CN(C)C)Oc1nc2c(F)c(-c3cc(O)cc4ccccc34)c(CCC#N)cc2c2c1NC(=O)CN2C1C2CNC1C2` (single isomer, unassigned) [Example 11b] were 5000 to 10000 nM and 5000 to 10000 nM.
